Source: publication PMC5681660, “Reduced hepatitis B and D viral entry using clinically applied drugs as novel inhibitors of the bile acid transporter NTCP” (Scientific Reports, 2017)
Counter-ions that a name gives are not always drawn. Like-named read-outs stand apart in the source and are kept apart here.

Experiments:
human NTCP [1] = molecular target: T1, human NTCP (Homo sapiens, UniProt Q14973); experiment: Screening fluorescent competitive Myrcludex B-FITC binding assay (96-well, 10 µM drug)
T1 sequence (Q14973 1-349): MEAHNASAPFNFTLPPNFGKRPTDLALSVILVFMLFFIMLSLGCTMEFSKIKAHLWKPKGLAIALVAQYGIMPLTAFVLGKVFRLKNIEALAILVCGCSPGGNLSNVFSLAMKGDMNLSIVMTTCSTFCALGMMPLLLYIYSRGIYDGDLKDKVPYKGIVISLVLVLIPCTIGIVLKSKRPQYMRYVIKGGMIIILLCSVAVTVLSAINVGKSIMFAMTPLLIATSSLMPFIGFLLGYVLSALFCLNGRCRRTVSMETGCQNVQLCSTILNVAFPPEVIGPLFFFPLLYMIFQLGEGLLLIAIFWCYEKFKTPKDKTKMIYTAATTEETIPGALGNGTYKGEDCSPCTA

human NTCP [2] = molecular target: T1, human NTCP; experiment: Screening taurocholate uptake assay (96-well, [14C]taurocholate, 10 µM drug)
[3] = Prestwick library screen, 10 µM drug, B-score of Myrcludex B-FITC binding
[4] = Prestwick library screen, 10 µM drug, B-score of taurocholate uptake
[5] = combined ranking from functional and binding assay B-scores
[6] = screen, 10 µM drug, Myrcludex B-FITC binding
[7] = combined ranking from functional and binding screening assays
[8] = screen, 10 µM drug, taurocholate uptake
[9] = Prestwick library screen, Myrcludex B-FITC binding, 10 µM drug
[10] = Prestwick library screen, taurocholate uptake, 10 µM drug
[11] = ranking score beside the functional and binding assay B-scores of the screen

Structure (SMILES)	B-score binding assay (human NTCP [1]; [3])	B-score functional assay (human NTCP [2]; [4])	Ranking score (human NTCP [2]; [5])	B-score binding assay (human NTCP [1]; [9])	B-score functional assay (human NTCP [2]; [10])	Ranking score (human NTCP [2]; [11])	further results
Cc1ccc(C(=O)c2ccc(CC(=O)O)n2C)cc1 [Tolmetin sodium salt dihydrate]	2.458	0.203	996.915				
O=C1CN2Cc3c(ccc(Cl)c3Cl)N=C2N1 [Anagrelide]	0.622	0.197	871.654				
CC(C)NCC(O)c1ccc(NS(C)(=O)=O)cc1 (stereo not drawn) [Sotalol hydrochloride]	0.649	0.17	866.77				
CC(C)(C)NCC(O)c1cc(O)cc(O)c1.CC(C)(C)NCC(O)c1cc(O)cc(O)c1.O=S(=O)(O)O (stereo not drawn) [Terbutaline hemisulfate]							B-score binding assay (human NTCP [1]; [6]): -2.462; Ranking score (human NTCP [2]; [7]): 291.443; B-score functional assay (human NTCP [2]; [8]): 2.669
NS(=O)(=O)c1cc2c(cc1Cl)N=C(CSCc1ccccc1)NS2(=O)=O [Benzthiazide]				0.39	-0.047	714.84	
CCCC(C)(COC(N)=O)COC(=O)NC(C)C (stereo not drawn) [Carisoprodol]				3.83	-0.248	768.775	
CN(C)CCC(c1ccc(Cl)cc1)c1ccccn1 (stereo not drawn) [Chlorpheniramine maleate]	1.318	1.245	1106.99				
Cc1[nH]c(=O)c(C#N)cc1-c1ccncc1 [Milrinone]	0.945	0.094	877.639				
CS(=O)(=O)Nc1ccc([N+](=O)[O-])cc1Oc1ccccc1 [Nimesulide]							B-score binding assay (human NTCP [1]; [6]): 0.652; Ranking score (human NTCP [2]; [7]): 428.869; B-score functional assay (human NTCP [2]; [8]): -1.398
CC(=O)N(CC(O)CO)c1c(I)c(C(=O)NCC(O)CO)c(I)c(C(=O)NCC(O)CO)c1I (stereo not drawn) [Iohexol]				0.046	0.198	748.519	
COc1ccc(OC)c(C(O)CNC(=O)CN)c1 (stereo not drawn) [Midodrine hydrochloride]				2.033	-0.28	735.356	
CN(C)CC/C=C1/c2ccccc2Sc2ccc(Cl)cc21 [Chlorprothixene hydrochloride]				-0.184	0.429	661.498	
C[C@]12CC[C@H](O)C[C@@H]1CC[C@@H]1[C@@H]2CC[C@]2(C)C(=O)CC[C@@H]12 [Epiandrosterone]							B-score binding assay (human NTCP [1]): 2.961; B-score functional assay (human NTCP [2]): 2.177; Ranking score (human NTCP [2]): 1232.82
CC[C@H]1OC(=O)[C@H](C)[C@@H](O[C@H]2C[C@@](C)(OC)[C@@H](O)[C@H](C)O2)[C@H](C)[C@@H](O[C@@H]2O[C@H](C)C[C@H](N(C)C)[C@H]2O)[C@](C)(O)C[C@@H](C)CN(C)[C@H](C)[C@@H](O)[C@]1(C)O [Azithromycin]	2.513	0.119	972.082				
O=C([O-])CCNC(=O)c1ccc(/N=N/c2ccc(O)c(C(=O)[O-])c2)cc1.[Na+].[Na+] [Balsalazide Sodium]							B-score binding assay (human NTCP [1]; [6]): -0.506; Ranking score (human NTCP [2]; [7]): 403.097; B-score functional assay (human NTCP [2]; [8]): -0.35
Cc1oncc1C(=O)Nc1ccc(C(F)(F)F)cc1 [Leflunomide]				-0.027	0.376	727.533	
NCc1ccc(S(N)(=O)=O)cc1 [Mafenide hydrochloride]				-0.055	0.341	703.397	
CCC1(c2ccc(N)cc2)CCC(=O)NC1=O (stereo not drawn) [Glutethimide, para-amino]				-0.055	0.113	663.514	

Structure (SMILES)	B-score binding assay (human NTCP [1]; [3])	B-score functional assay (human NTCP [2]; [4])	Ranking score (human NTCP [2]; [5])	B-score binding assay (human NTCP [1]; [9])	B-score functional assay (human NTCP [2]; [10])	Ranking score (human NTCP [2]; [11])	further results
NS(=O)(=O)c1cc2c(cc1C(F)(F)F)NCNS2(=O)=O [Hydroflumethiazide]	0.137	0.664	856.507				
S=C(NC1CCCCC1)N1CCC(c2cnc[nH]2)CC1 [Thioperamide maleate]							B-score binding assay (human NTCP [1]; [6]): 0.108; Ranking score (human NTCP [2]; [7]): 451.504; B-score functional assay (human NTCP [2]; [8]): -0.893
CCN(CC)CCOCCOC(=O)C1(c2ccccc2)CCCC1 [Carbetapentane citrate]	1.7	0.114	943.43				
NNCCc1ccccc1 [Phenelzine sulfate]							B-score binding assay (human NTCP [1]; [6]): -0.533; Ranking score (human NTCP [2]; [7]): 418.784; B-score functional assay (human NTCP [2]; [8]): -0.221
c1coc(CNc2ncnc3nc[nH]c23)c1 [6-Furfurylaminopurine]				-0.434	2.357	696.25	
CN(C/C=C/C#CC(C)(C)C)Cc1cccc2ccccc12 [Terbinafine]				-0.07	3.878	842.5	
COc1ccc2[nH]cc(CCNC(C)=O)c2c1 [Melatonin]	0.248	0.509	864.497				
Cc1ccc(O)c([C@H](CCN(C(C)C)C(C)C)c2ccccc2)c1 [Tolterodine tartrate]				0.032	0.018	673.446	
CC1(C)O[C@@H]2C[C@H]3[C@@H]4C[C@H](F)C5=CC(=O)C=C[C@]5(C)[C@@]4(F)[C@@H](O)C[C@]3(C)[C@]2(C(=O)CO)O1 [Fluocinolone acetonide]				-0.033	0.621	752.533	
CCCCNC(=O)NS(=O)(=O)c1ccc(C)cc1 [Tolbutamide]							B-score binding assay (human NTCP [1]; [6]): -0.855; Ranking score (human NTCP [2]; [7]): 448.765; B-score functional assay (human NTCP [2]; [8]): 0.082
CCN[C@H]1CN(CCCOC)S(=O)(=O)c2sc(S(N)(=O)=O)cc21 [Brinzolamide]				0.124	0.266	792.227	
Cn1c([N+](=O)[O-])cnc1COC(N)=O [Ronidazole]							B-score binding assay (human NTCP [1]; [6]): -0.252; Ranking score (human NTCP [2]; [7]): 432.42; B-score functional assay (human NTCP [2]; [8]): -0.446
NC[C@H]1O[C@H](O[C@H]2[C@H](O)[C@@H](O[C@H]3O[C@H](CO)[C@@H](O)[C@H](N)[C@H]3O)[C@H](N)C[C@@H]2N)[C@H](O)[C@@H](O)[C@@H]1O [Kanamycin A sulfate]				1.616	-0.456	673.457	
C[C@H](CCC(=O)O)[C@H]1CC[C@H]2[C@@H]3C(=O)C[C@@H]4CC(=O)CC[C@]4(C)[C@H]3CC(=O)[C@]12C [Dehydrocholic acid]							B-score binding assay (human NTCP [1]; [6]): -0.083; Ranking score (human NTCP [2]; [7]): 309.304; B-score functional assay (human NTCP [2]; [8]): -1.555
CC(CN1c2ccccc2Sc2ccccc21)N(C)C (stereo not drawn) [Promethazine hydrochloride]	1.811	-0.002	866.133				
CCN(CC)CC(=O)Nc1c(C)cccc1C [Lidocaine hydrochloride]				0.07	0.516	815.009	
CC(=O)O[C@H]1C(=O)[C@@]2(C)[C@H]([C@H](OC(=O)c3ccccc3)[C@]3(O)C[C@H](OC(=O)[C@H](O)[C@@H](NC(=O)c4ccccc4)c4ccccc4)C(C)=C1C3(C)C)[C@]1(OC(C)=O)CO[C@@H]1C[C@@H]2O [Paclitaxel]				0.829	-0.069	752.811	
O=C(O)CNC(=O)C(CS)Cc1ccccc1 (stereo not drawn) [Thiorphan]	2.652	0.09	959.982				
